In patent publication US9586896B2, “Nitroxyl donors with improved therapeutic index” (Cardioxyl Pharmaceuticals, Inc., priority 2013, dated 2017):

How the values were obtained:
[1] = tested on: healthy volunteers; test: 24-hour continuous infusion dose escalation study of CXL-1020 in healthy volunteers; type: in vivo, humans; conditions: forearm vein infusion
Description: To determine whether a local phlebitis would occur in humans upon longer duration dosing, a longer duration study was conducted in healthy volunteers. The longer duration study included a dose escalation study in which cohorts of 10 volunteers were to be sequentially administered a 24-hour continuous infusion of CXL-1020 at the dose rates of 10, 20, and 30 μg/kg/min with a safety assessment between each cohort. Each cohort consisted of 2 placebo and 8 active treatments with a sentinel pair of 1 active and 1 placebo followed by the main group of 1 placebo and 7 active treatments. The infusion was via a percutaneous catheter inserted into a forearm vein. The catheter was switched to the contralateral arm after 12 hours of infusion.

[2] = tested on: dogs; test: 14-day continuous infusion tolerance study of CXL-1020 in dogs; type: in vivo
Description: During in vivo trials of the nitroxyl donor, CXL-1020 (N-hydroxy-2-methanesulfonylbenzene-1-sulfonamide), a 14-day study was conducted to evaluate tolerance in dogs treated with continuous infusions of CXL-1020 at dose rates of up to 90 μg/kg/min. […] To further investigate this undesirable side-effect, a follow-up 14-day study in dogs was initiated.

[3] = tested on: heart failure canines (microembolization model); test: Hemodynamic efficacy in canine microembolization heart failure model; type: in vivo, mongrel dogs; conditions: 3 or 10 μg/kg/min infusion, FIG. 3
Description: Heart failure was produced using healthy, conditioned, purpose-bred mongrel dogs (20-26 kg) using a sequential microembolization model. Coronary microembolization was performed until LV-ejection fraction (determined angiographically under anesthesia) was approximately 30% or lower. Two weeks were then provided after the last microembolization to ensure stabilization of each animal prior to initiating experiments.
An initial dose-finding study (2-100 μg/kg/min for 40 min) was performed in 3 dogs to identify therapeutically relevant doses of a compound of formula (1). […] Only one dose was studied on a given day, the other at least one-week later, and the order randomized. […]
LV end-systolic volume (ESV) and end-diastolic volumes (EDV) were calculated from ventriculograms using the area-length method. […] LV fractional area of shortening (FAS) was measured from LV short axis view at the level of papillary muscles obtained from 2-dimensional echocardiograms. Measured indexes of LV diastolic function included deceleration time of mitral inflow velocity (DT), ratio of the integral of early mitral inflow velocity (Ei) to velocity during atrial contraction (Ai) (Ei/Ai) and LV end-diastolic circumferential wall stress (EDWS).
Measurements of myocardial oxygen consumption were performed at baseline and at 4 hours after 10 μg/kg/min infusion. […] Oxygen content was determined with a hemoximeter. […]

[4] = Nitroxyl production via N2O quantification (GC headspace analysis); type: physicochemical; conditions: PBS, 37° C.
Excerpt: Nitrous oxide (N2O) is produced via the dimerization and dehydration of HNO, and is the most common marker for nitroxyl production (Fukuto et al., Chem. Res. Toxicol. 18:790-801 (2005)). […] Using either nitrous oxide gas or Angeli's salt (AS) as a standard, the relative amounts of N2O released from compounds of the disclosure was examined via gas chromatography (GC) headspace analysis.
A procedure for determining the relative amounts of N2O released from compounds of the disclosure is as follows. GC was performed on an Agilent gas chromatograph equipped with a split injector (10:1 splitting), microelectron capture detector, and a HP-MOLSIV 30 m×0.32 mm×25 μm molecular sieve capillary column. Helium was used as the carrier (4 mL/min) gas and nitrogen was used as the make-up (20 mL/min) gas. The injector oven and the detector oven were kept at 200° C. and 325° C., respectively. All nitrous oxide analyses were performed with the column oven held at a constant temperature of 200° C.
All gas injections were made using an automated headspace analyzer. Vial pressurization was 15 psi. The analyzer's sample oven, sampling valve, and transfer line were kept at 40° C., 45° C., and 50° C., respectively. The oven stabilization, vial pressurization, loop fill, loop equilibration, and sample injection times were 1.00 min., 0.20 min., 0.20 min., 0.05 min., and 1.00 min., respectively.
All determinations used a batch of nominal 20 mL headspace vials with volumes pre-measured for sample uniformity (actual vial volume varied by ≦2.0% relative standard deviation (n=6)). The average vial volume for the batch was determined from six randomly-selected vials by calculating the weight difference between the capped and sealed empty (i.e., air-filled) vial and the capped and sealed deionized water-filled vial using the known density of deionized water, then averaging. Blanks were prepared by sealing and capping two vials then purging each for 20 seconds with a gentle argon stream. […]

Structure (SMILES)	tolerability at 10 μg/kg/min for 24-hours ([1]; 10 μg/kg/min)	findings at 20 μg/kg/min for 24-hours ([1]; 20 μg/kg/min)	dose rate tolerated [2] [µg/kg/min]	hemodynamic activity relative to CXL-1020 [3]	Relative N2O Yield (90 minute incubation) [4] [%]	Relative N2O Yield (360 minute incubation) ([4]; 360 minute incubation) [%]
CS(=O)(=O)c1ccccc1S(=O)(=O)NO [CXL-1020, N-hydroxy-2-methanesulfonylbenzene-1-sulfonamide]	well tolerated	mild findings (either clinical signs and/or changes in clinical pathology) in all 8 subjects consistent with infusion site phlebitis	60			
Cc1ccc(S(=O)(=O)NO)o1 [Compound (1), N-Hydroxy-5-methylfuran-2-sulfonamide]				comparable hemodynamic activity to CXL-1020	52	
CS(=O)(=O)c1cccc(S(=O)(=O)NO)c1 [(2), N-Hydroxy-3-methanesulfonylbenzene-1-sulfonamide]					82	94
